Assays:
frataxin = assay: Frataxin protein expression (Western blot) in FRDA lymphocytes; type: cell-based, human; conditions: for level of frataxin (western blot): FRDA lymphocytes, FIG. 9
Experimental: Human mitochondrial disease cell line, Friedreich's ataxia lymphocytes (GM15850) was obtained from Coriell Cell Repositories (Camden, N.J.). Lymphocytes were cultured in RPMI-1640 medium (Gibco, Life Technologies, Grand Island, N.Y.) with 15% fetal calf serum, 2 mM glutamine (HyClone, South Logan, Utah) and 1% penicillin-streptomycin antibiotic supplement (Cellgro, Manassas, Va.). Cells were passaged every other day to maintain them in log phase growth and kept at a nominal concentration of 5-10×10^5 cell/mL. A CoQ10 deficient lymphocyte cell line (GM17932) was obtained from Coriell Cell Repositories. A nutrient sensitized screening strategy to identify methylene blue analogues that function within the mitochondrial respiratory chain was used by growing the CoQ10-deficient or FRDA lymphocytes in galactose containing media to force energy production predominantly through oxidative phosphorylation rather than glycolysis.^1-4 The lymphocytes were cultured in RPMI 1640 glucose free medium (Gibco, Grand Island, N.Y.) supplemented with 25 mM galactose, 2 mM glutamine and 1% penicillin-streptomycin, and 10% dialyzed fetal bovine serum (FBS) (<0.5 μg/mL) (Gemini Bio-Product, West Sacramento, Calif.).
Immortalized normal and FRDA lymphocyte cell lines were seeded at 500,000 cells per/mL (5 mL) in T-25 flask. Cultures were treated with the test compounds and incubated for 24 h. Cells were harvested by centrifugation, washed with saline buffer and then were lysed using 200 μL of lysis buffer (1% triton X-100, 0.1% SDS, Tris-HCl (50 Mm) pH 7.4, 150 mM NaCl, 0.5% sodium deoxycholate, 0.1 mM EDTA) with protease inhibitors (protease cocktail inhibitors (Roche Applied Science) and 1 mM phenylmethylsulfonyl fluoride (Sigma), and incubated on ice for 30 min with periodical mixing. These samples were cleared of insoluble material by centrifugation at 20,000×g for 10 min at 4° C. Total protein concentration was measured by the BCA kit (Thermo Fisher Scientific). NuPAGE LDS Sample Buffer (4×) and NuPAGE Reducing Agent (10×) was added the lysate and they were denatured at 95° C. for 5 min, then equal amounts of lysates ([…]) were used for immunoblotting. Samples were resolved on a 4%-12% SDS-polyacrylamide Bis-Tris gels (Invitrogen) according to the manufacturer's recommendations and then proteins were transferred to nitrocellulose membranes. After blocking with Superblock-TBS (Thermo Fisher Scientific) for 1 hour to inhibit non-specific binding the blot was incubated with anti-frataxin monoclonal antibody (5 μg/mL) (18A5DB1) (Novex®) (Life technologies) overnight at 4° C. to detect endogenous frataxin in FRDA and normal lymphocytes. Following three 5-min washes with TBST, the blots were incubated with horseradish peroxidase-linked secondary […] antibody IgGs (1:10,000, Sigma, in Superblock-TBS) at room temperature for 1 hr. The blots were washed three times for 5 min with TBST, rinsed with deionized H2O, and developed with enhanced chemiluminescence (ECL) (BioRad Chemi-Doc) using West Pico Chemiluminescent Substrate (Pierce Biotechnology).

[1] = system: bovine heart mitochondrial NADH oxidase activity (complexes I, III and IV); assay: NADH oxidase activity in bovine heart mitochondria; type: biochemical; conditions: complex I completely blocked by rotenone; FIG. 6
Experimental: The effect of the methylene blue analogues on the activities of complexes I, III and IV within the respiratory chain was evaluated using bovine heart mitochondria during the oxidation of their respective substrate (NADH) as described previously. Briefly, a small scale preparation of bovine heart mitochondria was prepared as described before (Smith, A. L (1967), Methods Enzymol. 10, 81). Bovine heart submitochondrial particles (SMPs) were prepared as described by Matsuno-Yagi and stored in a buffer containing 0.25 M sucrose and 10 mM Tris-HCl, pH 7.4, at −80° C. (Matsuno-Yagi, A.; Hatefi, Y. J. (1985) J. Biol. Chem. 260, 11424). SMPs were diluted to 0.5 mg/mL. Mitochondrial complexes I, III, and IV activity were assayed at 30 C and monitored spectrophotometrically using a Beckman Coulter DU-530 (340 nm, ε=6.22 mM^−1 cm^−1). NADH oxidase activity was determined in 50 mM Hepes buffer containing 5 mM MgCl2, pH 7.5, in a total volume of 2.5 mL. The final mitochondrial protein concentration was 30 μg/mL. The initial rates of NADH oxidation were calculated from the linear portion of the traces.

SMILES | level of frataxin (western blot) (frataxin; higher concentration) | level of frataxin (western blot) (frataxin; lower concentration) | frataxin levels (frataxin; general statement, concentration not given) | effect on NADH oxidase activity: redirection of electron flow in the respiratory chain [1]
CCCCCCCCCCCCCCCN(CCCC)c1ccc2nc3ccc(=O)cc-3sc2c1 [compound 33, 7-(butyl(pentadecyl)amino)-3H-phenothiazin-3-one] | significantly increased | significantly increased | significantly increased | 
CCCCCCCCCCCCCCCCCc1cc2nc3ccc(N(C)C)cc3sc-2cc1=[N+](C)C [compound 5, N-(7-(dimethylamino)-2-heptadecyl-3H-phenothiazin-3-ylidene)-N-methylmethan-aminium iodide] |  |  |  | able redirect electron flow in the respiratory chain
CN(C)c1ccc2nc3ccc(=[N+](C)C)cc-3sc2c1 [Methylene blue, 3,7-bis(dimethylamino)phenazathionium chloride, reference compound] | did not | slightly increased |  | 
